How the values were obtained:
human MAO-A = target: T1, human MAO-A (Homo sapiens, UniProt P21397); experiment: MAO-A enzymatic activity, spectrophotometric assay (Amplex Red, tyramine) on membranes of transfected EBNA cells; type: biochemical; conditions: heading: MAO-A IC50, substrate tyramine, 30 min preincubation at 37° C., pH 7.4
T1 construct: expressed in transfected cells; host or cells: EBNA cells (transient transfection); membranes by centrifugation at 45,000 x g
T1 sequence (P21397 1-527): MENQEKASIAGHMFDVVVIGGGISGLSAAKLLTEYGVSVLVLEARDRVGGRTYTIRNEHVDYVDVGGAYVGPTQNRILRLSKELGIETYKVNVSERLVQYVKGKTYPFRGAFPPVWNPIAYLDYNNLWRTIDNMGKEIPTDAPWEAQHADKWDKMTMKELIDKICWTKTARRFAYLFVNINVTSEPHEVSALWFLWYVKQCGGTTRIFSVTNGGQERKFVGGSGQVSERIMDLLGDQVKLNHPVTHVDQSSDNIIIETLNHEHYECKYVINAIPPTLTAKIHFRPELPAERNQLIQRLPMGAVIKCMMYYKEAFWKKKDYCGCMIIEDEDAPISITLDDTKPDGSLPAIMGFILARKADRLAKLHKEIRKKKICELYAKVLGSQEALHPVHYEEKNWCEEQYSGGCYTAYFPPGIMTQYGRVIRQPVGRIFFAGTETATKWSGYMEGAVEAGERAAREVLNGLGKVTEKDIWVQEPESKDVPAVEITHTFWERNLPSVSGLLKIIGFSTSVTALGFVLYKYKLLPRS
Description: (§1) The pharmacological activity of the compounds was tested using the following method. The cDNAs encoding human MAO-A and MAO-B were transiently transfected into EBNA cells using the procedure described by Schlaeger and Christensen [Transient Gene Expression in Mammalian Cells Grown in Serum-free Suspension Culture; Cytotechnology, 15:1-13 (1998)]. After transfection, cells were homogenised by means of a Polytron homogenizer in 20 mM Tris HCl buffer, pH 8.0, containing 0.5 mM EGTA and 0.5 mM phenylmethanesulfonyl fluoride. Cell membranes were obtained by centrifugation at 45,000×g and, after two rinsing step with 20 mM Tris HCl buffer, pH 8.0, containing 0.5 mM EGTA, membranes were eventually re-suspended in the above buffer and aliquots stored at −80° C. until use.
(§2) MAO-A and MAO-B enzymatic activity was assayed in 96-well-plates using a spectrophotometric assay adapted from the method described by Zhou and Panchuk-Voloshina [A One-Step Fluorometric Method for the Continuous Measurement of Monoamine Oxidase Activity, Analytical Biochemistry 253:169-174 (1997)]. Briefly, membrane aliquots were incubated in 0.1 M potassium phosphate buffer, pH 7.4, for 30 min at 37° C. with or without various concentrations of the compounds. After this period, the enzymatic reaction was started by the addition of the MAO substrate tyramine together with 1 U/ml horse-radish peroxidase (Roche Biochemicals) and 80 μM N-acetyl-3,7,-dihydroxyphenoxazine (Amplex Red, Molecular Probes). The samples were further incubated for 30 min at 37° C. in a final volume of 200 μl and absorbance was then determined at a wavelength of 570 nm using a SpectraMax plate reader (Molecular Devices). Background (non-specific) absorbance was determined in the presence of 10 μM clorgyline for MAO-A or 10 μM L-deprenyl for MAO-B.
(§3) IC50 values were determined from inhibition curves obtained using nine inhibitor concentrations in duplicate, by fitting data to a four parameter logistic equation using a computer program.

human MAO-B = target: T2, human MAO-B (Homo sapiens, UniProt P27338); experiment: MAO-B enzymatic activity, spectrophotometric assay (Amplex Red, tyramine) on membranes of transfected EBNA cells; type: biochemical; conditions: substrate tyramine, 30 min preincubation at 37° C., pH 7.4
T2 construct: expressed in transfected cells; host or cells: EBNA cells (transient transfection); membranes by centrifugation at 45,000 x g
T2 sequence (P27338 1-520): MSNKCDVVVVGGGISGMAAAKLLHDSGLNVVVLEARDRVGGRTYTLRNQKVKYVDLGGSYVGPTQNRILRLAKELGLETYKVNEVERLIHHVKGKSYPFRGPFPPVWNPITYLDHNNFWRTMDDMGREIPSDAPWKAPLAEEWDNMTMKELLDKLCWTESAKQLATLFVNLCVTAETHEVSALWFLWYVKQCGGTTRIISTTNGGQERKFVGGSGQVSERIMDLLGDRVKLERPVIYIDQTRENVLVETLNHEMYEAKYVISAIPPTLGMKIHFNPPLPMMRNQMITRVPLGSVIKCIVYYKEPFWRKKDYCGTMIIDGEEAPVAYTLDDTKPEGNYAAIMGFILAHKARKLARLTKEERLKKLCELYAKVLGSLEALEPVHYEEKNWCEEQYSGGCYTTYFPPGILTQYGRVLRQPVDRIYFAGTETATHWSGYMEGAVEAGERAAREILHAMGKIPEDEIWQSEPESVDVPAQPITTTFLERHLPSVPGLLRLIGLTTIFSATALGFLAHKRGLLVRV
Description: as §1, §2, §3

IC50 (human MAO-A) [µM]	IC50 (human MAO-B) [µM]	Structure (SMILES)
> 10	0.083	CC(=Cc1ccc(OCc2cccc(F)c2)cc1)C(N)=O [Example 1, 3-[4-(3-Fluoro-benzyloxy)-phenyl]-2-methyl-acrylamide]
> 10	0.029	CNC(=O)C(C)Cc1ccc(OCc2cccc(F)c2)cc1 (stereo not drawn) [Example 4, 3-[4-(3-Fluoro-benzyloxy)-phenyl]-2,N-dimethyl-propionamide]
5.62	0.098	NC(=O)C#Cc1ccc(OCc2cccc(F)c2)cc1 [Example 5, 3-[4-(3-Fluoro-benzyloxy)-phenyl]-propynoic acid amide]
